# From BindingDB's records for doi:10.1021/acsmedchemlett.7b00245 (University of Iowa, 2017)
# pEC50: −log10 of the molar value.
# Assay: Activation of BTN3A1 in human PBMC-derived Vgamma9Vdelta2 T cells assessed as induction of interleukin 2 stimulated cell proliferation by measuring increase in CD3 positive cells incubated for 3 days followed by 11 days incubation post compound wash out with subsequent stimulation with IL-2 every 3 days measured after 14 days by flow cytometr
row,SMILES,pEC50
1,C/C(=C\CCP(=O)(O)Oc1cccc2ccccc12)CO,6.21
2,C/C(=C\CCP(=O)(COC(=O)C(C)(C)C)OCOC(=O)C(C)(C)C)CO (configuration not stated),8.27
3,COP(=O)(CC/C=C(\C)CO)Oc1ccccc1 (configuration not stated),4.48
4,COP(=O)(CC/C=C(\C)CO)Oc1cccc2ccccc12 (configuration not stated),5.26
5,C/C(=C\CCP(=O)(O)Oc1ccccc1)CO,6.06
6,C/C(=C\CCP(=O)(COC(=O)C(C)(C)C)Oc1cccc2ccccc12)CO (configuration not stated),9.10
7,C/C(=C\CCP(=O)(COC(=O)C(C)(C)C)Oc1ccccc1)CO (configuration not stated),7.85
